Data reported in PubChem BioAssay AID270 (DTP/NCI, 2004).
Several values for one entry are separate records, joined by “and”; a condition that tells them apart may be missing. Equal values may be shown once. Results filed as inconclusive are left out.

System: BDF1 mice, s.c. Lewis lung carcinoma, T/C %
Assay: NCI In Vivo Anticancer Drug Screen. Data for tumor model Lewis Lung Carcinoma (subcutaneous) in B6D2F1 (BDF1) mice
Summary of the method: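 Antitumor effect in vivo is scored from survival or tumor burden, reported as treated relative to vehicle controls.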

CC(C)(C)C1CCC(NC(=O)N(CCCl)N=O)CC1 (stereo unspecified)
T/C (endpoint: median survival time, dose: 140.0 mg/kg/injection, schedule: Q01DX001 (ip), vehicle: gum acacia, higher = longer survival): 118 % of control
T/C (endpoint: median survival time, dose: 315.0 mg/kg/injection, schedule: Q01DX001 (ip), vehicle: gum acacia, higher = longer survival): 121 % of control

O=c1cc(CO)[nH]cc1O
T/C (endpoint: mean tumor weight, dose: 25.0 mg/kg/injection, schedule: Q01DX011 (ip), vehicle: methylcellulose (MC), higher = larger tumour): 81 % of control
T/C (endpoint: mean tumor weight, dose: 50.0 mg/kg/injection, schedule: Q01DX011 (ip), vehicle: methylcellulose (MC), higher = larger tumour): 77 % of control
T/C (endpoint: mean tumor weight, dose: 100.0 mg/kg/injection, schedule: Q01DX011 (ip), vehicle: methylcellulose (MC), higher = larger tumour): 63 % of control
T/C (endpoint: mean tumor weight, dose: 500.0 mg/kg/injection, schedule: Q01DX011 (ip), vehicle: methylcellulose (MC), higher = larger tumour): 62 % of control
T/C (endpoint: mean tumor weight, dose: 600.0 mg/kg/injection, schedule: Q01DX011 (ip), vehicle: methylcellulose (MC), higher = larger tumour): 82 % of control
T/C (endpoint: mean tumor weight, dose: 700.0 mg/kg/injection, schedule: Q01DX011 (ip), vehicle: methylcellulose (MC), higher = larger tumour): 115 % of control

CCCCOP(=O)(OCCCC)c1ccccc1
T/C (endpoint: mean tumor weight, dose: 104.0 mg/kg/injection, schedule: Q01DX011 (ip), vehicle: other, higher = larger tumour): 93 % of control
T/C (endpoint: mean tumor weight, dose: 233.0 mg/kg/injection, schedule: Q01DX011 (ip), vehicle: other, higher = larger tumour): 66 % of control

CC(=O)Nc1ccc(Cl)c(Cl)c1
T/C (endpoint: median survival time, dose: 50.0 mg/kg/injection, schedule: Q01DX009 (ip), vehicle: Klucel (hydroxypropylcellulose) (HPC), higher = longer survival): 120 % of control and 124 % of control
T/C (endpoint: median survival time, dose: 100.0 mg/kg/injection, schedule: Q01DX009 (ip), vehicle: Klucel (hydroxypropylcellulose) (HPC), higher = longer survival): 106 % of control
T/C (endpoint: median survival time, dose: 200.0 mg/kg/injection, schedule: Q01DX009 (ip), vehicle: Klucel (hydroxypropylcellulose) (HPC), higher = longer survival): 98 % of control

O=NN(CCCl)C(=O)NC1CCC(C(=O)O)CC1 (stereo unspecified)
T/C (endpoint: median survival time, dose: 3.0 mg/kg/injection, schedule: Q01DX001 (ip), vehicle: saline with Tween-80, higher = longer survival): 97 % of control and 117 % of control
T/C (endpoint: median survival time, dose: 5.0 mg/kg/injection, schedule: Q01DX001 (ip), vehicle: saline with Tween-80, higher = longer survival): 116 % of control
T/C (endpoint: median survival time, dose: 7.0 mg/kg/injection, schedule: Q01DX001 (ip), vehicle: saline with Tween-80, higher = longer survival): 110 % of control
T/C (endpoint: median survival time, dose: 8.0 mg/kg/injection, schedule: Q01DX001 (ip), vehicle: saline with Tween-80, higher = longer survival): 124 % of control
T/C (endpoint: median survival time, dose: 11.0 mg/kg/injection, schedule: Q01DX001 (ip), vehicle: saline with Tween-80, higher = longer survival): 113 % of control
T/C (endpoint: median survival time, dose: 12.0 mg/kg/injection, schedule: Q01DX001 (ip), vehicle: saline with Tween-80, higher = longer survival): 121 % of control
T/C (endpoint: median survival time, dose: 13.0 mg/kg/injection, schedule: Q01DX001 (ip), vehicle: saline with Tween-80, higher = longer survival): 111 % of control and 288 % of control and 180 % of control
T/C (endpoint: median survival time, dose: 17.0 mg/kg/injection, schedule: Q01DX001 (ip), vehicle: saline with Tween-80, higher = longer survival): 121 % of control
T/C (endpoint: median survival time, dose: 20.0 mg/kg/injection, schedule: Q01DX001 (ip), vehicle: saline with Tween-80, higher = longer survival): 206 % of control [middle of 5 runs]
T/C (endpoint: median survival time, dose: 26.0 mg/kg/injection, schedule: Q01DX001 (ip), vehicle: saline with Tween-80, higher = longer survival): 109 % of control
T/C (endpoint: median survival time, dose: 27.0 mg/kg/injection, schedule: Q01DX001 (ip), vehicle: saline with Tween-80, higher = longer survival): 196 % of control
T/C (endpoint: median survival time, dose: 30.0 mg/kg/injection, schedule: Q01DX001 (ip), vehicle: saline with Tween-80, higher = longer survival): 228 % of control and 288 % of control and 219 % of control

Cc1cc2c(c3oc(C4(C)OC4C4OC4C)cc(=O)c13)C(=O)c1c(O)c(C3CC(C)(N(C)C)C(O)C(C)O3)cc(C3CC(N(C)C)C(O)C(C)O3)c1C2=O (stereo unspecified)
T/C (endpoint: median survival time, dose: 4.0 micrograms/kg/injection, schedule: Q01DX009 (ip), vehicle: DMSO, higher = longer survival): 105 % of control
T/C (endpoint: median survival time, dose: 8.0 micrograms/kg/injection, schedule: Q01DX009 (ip), vehicle: DMSO, higher = longer survival): 108 % of control
T/C (endpoint: median survival time, dose: 16.0 micrograms/kg/injection, schedule: Q01DX009 (ip), vehicle: DMSO, higher = longer survival): 100 % of control

O=CN(O)CC(=O)O
T/C (endpoint: median survival time, dose: 3000.0 mg/kg/injection, schedule: Q01DX001 (ip), vehicle: saline, higher = longer survival): 115 % of control

C[C@@H](N)[C@@H](O)c1ccccc1
T/C (endpoint: mean tumor weight, dose: 3.13 mg/kg/injection, schedule: Q01DX011 (ip), vehicle: saline, higher = larger tumour): 91 % of control
T/C (endpoint: mean tumor weight, dose: 6.25 mg/kg/injection, schedule: Q01DX011 (ip), vehicle: saline, higher = larger tumour): 67 % of control
T/C (endpoint: mean tumor weight, dose: 12.5 mg/kg/injection, schedule: Q01DX011 (ip), vehicle: saline, higher = larger tumour): 45 % of control

Nc1nc(=S)c2ncn(C3CC(O)C(CO)O3)c2[nH]1 (stereo unspecified)
T/C (endpoint: median survival time, dose: 4.0 mg/kg/injection, schedule: Q01DX009 (ip), vehicle: saline, higher = longer survival): 122 % of control
T/C (endpoint: median survival time, dose: 8.0 mg/kg/injection, schedule: Q01DX009 (ip), vehicle: saline, higher = longer survival): 118 % of control
T/C (endpoint: median survival time, dose: 16.0 mg/kg/injection, schedule: Q01DX009 (ip), vehicle: saline, higher = longer survival): 108 % of control
T/C (endpoint: median survival time, dose: 64.0 mg/kg/injection, schedule: Q01DX009 (ip), vehicle: saline, higher = longer survival): 113 % of control
